One compound from patent US7964560B2, “Hepatitis C virus inhibitors” (Bristol-Myers Squibb Company, priority 2008, dated 2011) can be followed below.

Where two headings read alike, the source gives them in different places.

The target in one experiment is T1, human liver cathepsin B (Homo sapiens, UniProt P07858).
T1 construct: purchased Sigma, EMDbiosciences; host or cells: human liver
Put plainly: Specificity assay, cathepsin B. The format is biochemical. The method, then:
(§1) The specificities of compounds of the present disclosure were determined against a variety of serine proteases: human neutrophil elastase (HNE), porcine pancreatic elastase (PPE) and human pancreatic chymotrypsin and one cysteine protease: human liver cathepsin B. In all cases a 96-well plate format protocol using a fluorometric Amino-Methyl-Coumarin (AMC) substrate specific for each enzyme was used as described previously (PCT Patent Application No. WO 00/09543) with some modifications to the serine protease assays. All enzymes were purchased from Sigma, EMDbiosciences while the substrates were from Bachem, Sigma and EMDbiosciences.
(§2) Compound concentrations varied from 100 to 0.4 μM depending on their potency. The enzyme assays were each initiated by addition of substrate to enzyme-inhibitor pre-incubated for 10 min at room temperature and hydrolysis to 15% conversion as measured on CYTOFLUOR®.
100 mM NaOAC (Sodium Acetate) pH 5.5, 3% DMSO, 1 mM TCEP (Tris(2-carboxyethyl)phosphine hydrochloride), 5 nM Cathepsin B (enzyme stock activated in buffer containing 20 mM TCEP before use), and 2 μM Z-FR-AMC diluted in H2O.
(§3) The percentage of inhibition was calculated using the formula: [1−((UVinh−UVblank)/(UVctl−UVblank))]×100
(§4) A non-linear curve fit was applied to the inhibition-concentration data, and the 50% effective concentration (IC50) was calculated by the use of Excel XLfit software.

Experiment [1] concerns HCV replicon in HUH-7 cells. The experiment can be described thus: HCV replicon FRET assay. The format is cell-based, Hepatitis C virus (strain 1b). Particulars: Hepatitis C virus. An excerpt: An HCV replicon whole cell system was established as described by Lohmann, V. et al., Science, 285(5424):110-113 (1999). This system enabled us to evaluate the effects of our HCV Protease compounds on HCV RNA replication. Briefly, using the HCV strain 1b sequence described in the Lohmann paper (Accession number: AJ238799), an HCV cDNA was synthesized by Operon Technologies, Inc. (Alameda, Calif.), and the full-length replicon was then assembled in plasmid pGem9zf(+) (Promega, Madison, Wis.) using standard molecular biology techniques. The replicon consists of (i) the HCV 5′ UTR fused to the first 12 amino acids of the capsid protein, (ii) the neomycin phosphotransferase gene (neo), (iii) the IRES from encephalomyocarditis virus (EMCV), and (iv) HCV NS3 to NS5B genes and the HCV 3′ UTR. Plasmid DNAs were linearized with ScaI and RNA transcripts were synthesized in vitro using the T7 MegaScript transcription kit (Ambion, Austin, Tex.) according to manufacturer's directions. In vitro transcripts of the cDNA were transfected into the human hepatoma cell line, HUH-7. […] Resulting cell lines were characterized for positive and negative strand RNA production and protein production over time.
The HCV replicon FRET assay was developed to monitor the inhibitory effects of compounds described in the disclosure on HCV viral replication. HUH-7 cells, constitutively expressing the HCV replicon, were grown in Dulbecco's Modified Eagle Media (DMEM) (Gibco-BRL) containing 10% Fetal calf serum (FCS) (Sigma) and 1 mg/ml G418 (Gibco-BRL). Cells were seeded the night before (1.5×10^4 cells/well) in 96-well tissue-culture sterile plates. Compound and no compound controls were prepared in DMEM containing 4% FCS, 1:100 Penicillin/Streptomysin (Gibco-BRL), 1:100 L-glutamine and 5% DMSO in the dilution plate (0.5% DMSO final concentration in the assay). Compound/DMSO mixes were added to the cells and incubated for 4 days at 37° C. After 4 days, cells were first assessed for cytotoxicity using alamar Blue (Trek Diagnostic Systems) for a CC50 reading. The toxicity of compound (CC50) was determined by adding 1/10th volume of alamar Blue to the media incubating the cells. After 4 h, the fluorescence signal from each well was read, with an excitation wavelength at 530 nm and an emission wavelength of 580 nm, using the CYTOFLUOR® Series 4000 (Perspective Biosystems). Plates were then rinsed thoroughly with Phosphate-Buffered Saline (PBS) (3 times 150 μl). The cells were lysed with 25 μl of a lysis assay reagent containing an HCV protease substrate (5× cell Luciferase cell culture lysis reagent (PROMEGA® #E153A) diluted to 1× with distilled water, NaCl added to 150 mM final, the FRET peptide substrate (as described for the enzyme assay above) diluted to 10 μM final from a 2 mM stock in 100% DMSO. The plate was then placed into the CYTOFLUOR® 4000 instrument which had been set to 340 nm excitation/490 nm emission, automatic mode for 21 cycles and the plate read in a kinetic mode. EC50 determinations were carried out as described for the IC50 determinations.
A general note: Replicon systems follow genome replication, usually without infectious particles.

Experiment [2] addresses T2, porcine pancreatic elastase (PPE) (Sus scrofa, UniProt P00772).
T2 construct: purchased Sigma, EMDbiosciences
The experiment can be described thus: Specificity assay, porcine pancreatic elastase. The format is biochemical. The method, then:
as §1, §2
50 mM Tris-HCl, pH 8.0, 50 mM NaCl, 0.1 mM […], 3% DMSO, 0.02% Tween-20, 5 μM succ-AAPV-AMC and 20 nM HNE or 8 nM PPE;
as §3, §4

T2 sequence (P00772 27-266): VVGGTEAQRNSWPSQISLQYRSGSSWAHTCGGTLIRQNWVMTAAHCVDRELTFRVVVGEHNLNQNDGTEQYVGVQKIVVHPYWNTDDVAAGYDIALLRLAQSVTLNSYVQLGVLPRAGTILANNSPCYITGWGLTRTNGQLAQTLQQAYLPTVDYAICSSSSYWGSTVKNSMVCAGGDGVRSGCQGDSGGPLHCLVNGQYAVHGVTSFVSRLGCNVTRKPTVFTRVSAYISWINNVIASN

As to `C=C[C@@H]1C[C@]1(NC(=O)[C@@H]1C[C@@](SCCCC)(c2ccc(-c3ccccc3)cc2)CN1C(=O)[C@@H](NC(=O)OC(C)(C)C)C(C)(C)C)C(=O)NS(=O)(=O)C1CC1` [Example 1, tert-butyl (S)-1-((2S,4R)-4-(biphenyl-4-yl)-4-(butylthio)-2-((1R,2S)-1-(cyclopropylsulfonylcarbamoyl)-2-vinylcyclopropylcarbamoyl)pyrrolidin-1-yl)-3,3-dimethyl-1-oxobutan-2-ylcarbamate], the IC50 on human liver cathepsin B was 7.5 µM; in experiment [2] it was above 25 µM. Also, the EC50 in experiment [1] (96 h, HUH-7 replicon cells, 4 days, read-out: EC50 value in the replicon FRET assay) was 0.0073 µM; in experiment [1] (Huh-7) it was 0.0072 to 0.022 µM.

Broadly, the IC50 is the point on the concentration scale where inhibition reaches its midpoint. A low value points to higher potency. One may read the EC50 as the concentration that produces a half-maximal response.
